Usually Ki stands for a dissociation constant, usually derived from enzyme kinetics or from competition with a known ligand. A lower Ki goes with higher affinity.

“Also recorded” adds a separate entry of the source.

15 compounds from article PMC4273980 (ACS Chemical Biology, 2014) can be followed below.

In the first test the target is T1, P2Y14R (Homo sapiens, UniProt Q15391).
T1 sequence (Q15391 1-338): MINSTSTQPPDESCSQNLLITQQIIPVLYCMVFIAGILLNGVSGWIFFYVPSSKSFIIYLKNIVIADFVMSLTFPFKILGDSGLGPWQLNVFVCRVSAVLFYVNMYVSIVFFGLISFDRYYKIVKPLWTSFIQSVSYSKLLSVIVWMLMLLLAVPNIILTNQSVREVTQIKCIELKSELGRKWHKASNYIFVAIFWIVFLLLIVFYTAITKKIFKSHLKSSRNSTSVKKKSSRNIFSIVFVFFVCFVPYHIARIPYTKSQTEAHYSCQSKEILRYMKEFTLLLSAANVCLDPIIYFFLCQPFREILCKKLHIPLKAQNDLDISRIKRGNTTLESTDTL
The test can be described thus: Flow cytometry. The settings on record: 10 μM competing ligand, 30 min preincubation; 10 nM 30.
Turning to `O=c1ccn([C@@H]2O[C@H](COP(=O)(O)OP(=O)(O)O)[C@@H](O)[C@H]2O)c(=O)[nH]1` [compound 1, uridine-5′-diphosphate], the “effect of competing ligand on labeling of P2Y14R-CHO cells by 30, in words” value (“effect of competing ligand” below) is reported as “largely prevented the labeling”.

With `O=C(O)c1cc(-c2ccc(C3CCNCC3)cc2)c2ccc(-c3ccc(C(F)(F)F)cc3)cc2c1` [compound 6, 4-(4-(piperidin-4-yl)-phenyl)-7-(4-(trifluoromethyl)-phenyl)-2-naphthoic acid], the “effect of competing ligand” value is “largely prevented the labeling”.

For the compound `O=C(O)[C@H]1O[C@H](OP(=O)(O)OP(=O)(O)OC[C@H]2O[C@@H](n3ccc(=O)[nH]c3=O)[C@H](O)[C@@H]2O)[C@H](O)[C@@H](O)[C@@H]1O` [compound 36, uridine-5′-diphosphoglucuronic acid], the “effect of competing ligand” value was “largely prevented the labeling”.

Turning to `CNc1ncnc2c1ncn2[C@H]1C[C@H](OP(=O)(O)O)[C@@H](COP(=O)(O)O)O1` [compound 37], the “effect of competing ligand” value is recorded as “failed at 10 μM to prevent binding of 30”.

Regarding `S=C=Nc1cccc(NC(=S)NCCCCNC(=S)Nc2cccc(N=C=S)c2)c1` [compound 38], the “effect of competing ligand” value is “failed at 10 μM to prevent binding of 30”.

Consider `Cc1ccc(C(=O)Nc2ccc(S(=O)(=O)O)c3cc(S(=O)(=O)O)cc(S(=O)(=O)O)c23)cc1NC(=O)c1cccc(NC(=O)Nc2cccc(C(=O)Nc3cc(C(=O)Nc4ccc(S(=O)(=O)O)c5cc(S(=O)(=O)O)cc(S(=O)(=O)O)c45)ccc3C)c2)c1` [suramin], for which the “effect of competing ligand” value is recorded as “only a minor reduction”.

The target in the next test is T2, hP2Y14R (Homo sapiens, UniProt Q15391).
T2 sequence (Q15391 1-338): T1 sequence (Q15391 1-338)
Kind of test: Antagonism of 2. It counts as cell-based.
Details: not given
In the case of `CCOC(=O)c1cc(-c2ccc(C3CCNCC3)cc2)c2ccc(-c3ccc(C(F)(F)F)cc3)cc2c1` [compound 19], the Ki is 120 ± 8 nM.

`C#CCCN1CCC(c2ccc(-c3cc(C(=O)O)cc4cc(-c5ccc(C(F)(F)F)cc5)ccc34)cc2)CC1` [compound 20]: the Ki turned out to be 2.7 ± 1.2 nM.

In turn, `C#CCCCCN1CCC(c2ccc(-c3cc(C(=O)O)cc4cc(-c5ccc(C(F)(F)F)cc5)ccc34)cc2)CC1` [compound 22] displayed a Ki of 13 ± 1.1 nM.

Compound `C=C1CCC[N+]12CCC(c1ccc(-c3cc(C(=O)[O-])cc4cc(-c5ccc(C(F)(F)F)cc5)ccc34)cc1)CC2` (centres unmarked) [compound 23] registered a Ki of 2 ± 0.2 nM.

Take `C#CCCC(=O)N1CCC(c2ccc(-c3cc(C(=O)O)cc4cc(-c5ccc(C(F)(F)F)cc5)ccc34)cc2)CC1` [compound 24]: the affinity corresponds to a Ki of 6.7 ± 2.2 nM.

Consider `C#CCCCCC(=O)N1CCC(c2ccc(-c3cc(C(=O)O)cc4cc(-c5ccc(C(F)(F)F)cc5)ccc34)cc2)CC1` [compound 25], for which the Ki came out at 8.3 ± 1.9 nM.

Compound `CC(C)(C)OC(=O)NCCCN1CCC(c2ccc(-c3cc(C(=O)O)cc4cc(-c5ccc(C(F)(F)F)cc5)ccc34)cc2)CC1` [compound 26] gave a Ki of 26 ± 6 nM.

Take `NCCCN1CCC(c2ccc(-c3cc(C(=O)O)cc4cc(-c5ccc(C(F)(F)F)cc5)ccc34)cc2)CC1` [compound 27]: the affinity corresponds to a Ki of 14 ± 2.4 nM.

`O=C(CCCCCNC(=O)COc1ccc(/C=C/C2=CC3=Cc4ccc(-c5cccs5)n4[B-](F)(F)[N+]3=C2)cc1)NCCCn1cc(CCCCN2CCC(c3ccc(-c4cc(C(=O)O)cc5cc(-c6ccc(C(F)(F)F)cc6)ccc45)cc3)CC2)nn1` [compound 32] came in with a Ki of over 100 nM.

The test is the same for the next values; noted with them: P2Y14R-CHO cells.
Turning to `O=C(CCCCCNC(=O)COc1ccc(/C=C/C2=CC3=Cc4ccc(-c5cccs5)n4[B-](F)(F)[N+]3=C2)cc1)NCCCn1cc(CCCCN2CCC(c3ccc(-c4cc(C(=O)O)cc5cc(-c6ccc(C(F)(F)F)cc6)ccc45)cc3)CC2)nn1` [compound 32], the “antagonist potency / affinity at P2Y14R, in words” value was “much weaker; also recorded: low affinity”.

The same test, now with this note: relative to 6.
For the compound `CCOC(=O)c1cc(-c2ccc(C3CCNCC3)cc2)c2ccc(-c3ccc(C(F)(F)F)cc3)cc2c1` [compound 19], the “fold weaker as an antagonist than free carboxylate analogue 6” value was 400 fold.
